Key:
[1] = tested on: Primary cell lines derived from PanIN mice (sorted YFP+ cells); assay: In vitro exposure of PanIN-derived primary cell lines to cerulein, dexamethasone, TGF-b; format: cell-based, mouse; settings: 48 hr; for cell morphology: dexamethasone 1 mM, vs DMSO vehicle
Procedure: Cells destined for transcriptional analysis were sorted into either RLT buffer (QIAGEN) or Trizol LS Reagent (Invitrogen). RNA was extracted from samples >1,000 cells using the RNEasy kit (QIAGEN). RNA from samples with fewer cells, including all sorted blood cell samples, was isolated using the PicoPure Extraction kit as directed (Arcturus). qPCR was performed as previously described (Zong et al., 2009), and primary sequences used are listed in Table 1, below. Relative expression was determined after adjusting for GAPDH. Genomic DNA was extracted from sorted CPCs pooled from three tumor-bearing mice using phenol or DNeasy kit (QIAGEN).
Primary cell lines were derived from PanIN mice after sorting pancreas single-cell suspensions for YFP^+ cells. Sorted YFP^+ cells were then placed in six-well plates in pancreatic ductal cell media (Schreiber et al., 2004) and passaged at 80% confluence, Cells were transferred to multiple 6-well plates (250,000 cells per well) in pancreatic ductal cell media containing DMSO vehicle, cerulein (100 nM, Sigma), dexamethasone (Dex, 1 mM, Sigma), TGF-b (5 ng/ml, Peprotech), or Dex (1 mM) and TGF-b (5 ng/ml). Morphology was photodocumented at 6 hr, 24 hr, and 48 hr after treatment using an inverted microscope. After 48 hr of exposure, cells were counted and RNA isolated, cDNA synthesized, and qPCR performed as described above.

[2] = tested on: murine PanIN disease; settings: Guerra et al., 2011; cited from earlier work
[3] = tested on: CY, KCY, PanIN PKCY, and PDAC PKCY mice; assay: Experimental acute pancreatitis elicited with cerulein in lineage-labeled mice; format: in vivo, mouse
Text: The behavior of mutant strains bearing various allele combinations of Pdx1-Cre KrasG12D, p16/p19fl, and p53fl has been described previously (Aguirre et al., 2003; Bardeesy et al., 2006; Hingorani et al., 2003; and U.S. patent application Ser. No. 11/503,499, the contents of which are expressly incorporated herein by reference). To perform lineage tracing, a RosaYFP reporter allele was introduced into these mutant backgrounds to generate a panel of compound mutant strains: Pdx1-Cre; RosaYFP (“CY”), Pdx 1-Cre; KrasG12D; RosaYFP (“KCY”), Pdx1-Cre; KrasG12D; p16/p19fl/+; RosaYFP (“IKCY”), and Pdx1-Cre; KrasG12D; p53fl/+; RosaYFP (“PKCY”). All experiments involving the KCY model employed mice between 8 and 10 weeks of age. For studies involving mice harboring only PaniN lesions by histologic analysis (“PanIN” mice), PKCY animals were sacrificed at 8-10 weeks of age based on prior observations regarding tumor progression (Bardeesy et al., 2006); no PKCY mice (out of 18 examined) had evidence of carcinoma at this time point. […] More than 90% of IKCY and PKCY mice were 34-38 weeks of age or 16-20 weeks of age, respectively, at the time of sacrifice.
Experimental pancreatitis was elicited with cerulein as described (Siveke et al., 2008), and specimens were obtained after 3 days of treatment. Three to four CY, KCY, PanIN PKCY, and PDAC PKCY were used for cerulein and vehicle (PBS) treated cohorts. Orthotopic transplantations were performed on NOD/SCID mice by injecting 1×10^5 sorted pancreas cells as previously described (Mohammad et al., 1998). PKCY PanIN mice aged 10 weeks were treated with seven daily injections of dexamethasone or vehicle (DMSO) as described (Stairs et al., 2011) and analyzed 24 hours later.
For experiments involving flow cytometry and sorting of pancreatic cells, at least 25% of the tissue was saved for histologic analysis and was processed and stained. To create a single cell suspension, pancreatic tissue was rinsed vigorously in cold DMEM/F12 three times before mincing with scissors (approximately 100 chops). The minced pieces were then incubated in preheated collagenase with protease inhibitors (2 mg/ml; Sigma) for 20 min at 37° C. Vigorous vortexing was performed every 5 min during this incubation. The dissolved pieces were then poured over a […] cell strainer. The flow through was resuspended in cold 2% FCS/DMEM/F12, centrifuged, washed once, and kept on ice in the dark. Enriched blood samples or dissociated pancreatic specimens were stained for various markers prior to flow cytometric analysis (FACS Calibur, BD, or Accuri C6, Accuri Cytometers) or flow sorting (FACSVantage with FACSDiva option, BD). For analysis and sorting based on endogenous YFP and surface markers, primary antibodies (1:100) and secondary antibodies (1:50) were incubated with cells in 10% FCS/DMEM/F12 for 20 min at 4° C. Primary PanIN cell lines from IKCY and PKCY mice were used as positive controls. Isotype controls were also run. For intracellular staining of CPCs and pancreas cells, cells were washed with 10% FCS/DMEM/F12 before washing in freshly prepared 13fixation/permeabilization solution (Fix/Perm; eBioscience) followed by incubation in Fix/Perm for 30 min in the dark at 4° C. Cells were washed twice with 13 permeabilization buffer (Perm; eBioscience) before incubation in Block-P solution (10% FCS in freshly prepared Perm). After 15 min at 4° C., primary antibodies were added and incubated for an additional 20 min on ice. […]

[4] = cerulein 100 nM, Dex 1 mM, triplicate

C[C@@H]1C[C@H]2[C@@H]3CCC4=CC(=O)C=C[C@]4(C)[C@@]3(F)[C@@H](O)C[C@]2(C)[C@@]1(O)C(=O)CO [dexamethasone]
expression of a panel of epithelial or mesenchymal markers (qPCR) [1, 4]: no effect

CC1=C(CC(=O)O)c2cc(F)ccc2/C1=C\c1ccc([S+](C)[O-])cc1 (stereo not shown) [sulindac]
PanIN disease [2]: regression of murine PanIN disease

TGF-b
expression of epithelial markers (qPCR) ([1]; TGF-b 5 ng/ml, triplicate): significant downregulation of epithelial markers | expression of mesenchymal markers Zeb1 and N-cad (qPCR) ([1]; TGF-b 5 ng/ml, triplicate): increase in the expression of the mesenchymal markers Zeb1 and N-cad | cell morphology ([1]; cerulein 100 nM, TGF-b 5 ng/ml): acquisition of a fibroblast-like morphology

cerulein
expression of a panel of epithelial or mesenchymal markers (qPCR) [1, 4]: no effect | proliferation [1, 4]: no effect on proliferation | cell morphology ([1]; cerulein 100 nM, TGF-b 5 ng/ml): identical morphology as vehicle-treated cells | circulating pancreatic cell (CPC) number ([3]; 8-week-old KCY mice, 3 days of cerulein vs vehicle): marked elevation in circulating cells | pancreas histology (ADMI and PanIN formation) ([3]; KCY mice, 8-week-old, 3 days of cerulein treatment vs vehicle): formation of ADMIs and accelerated PanIN formation | frequency of EMT in pancreas ([3]; PDAC mice, cerulein compared to vehicle): little change in the frequency of EMT | circulating pancreatic cell (CPC) number ([3]; across all groups (CY, KCY, PKCY PanIN, PDAC), p=0.014 by two-way ANOVA): significant increase in CPC number | EMT (YFP+Zeb1+ cells) in pancreas ([3]; control (CY) and KCY mice): emergence of YFP^+Zeb1^+ cells

— US20150017638A1, “METHODS FOR ASSESSING RISK FOR CANCER USING BIOMARKERS” (THE TRUSTEES OF THE UNIVERSITY OF PENNSYLVANIA, priority 2012, published 2015)
